Data published in ChEMBL document CHEMBL1201862, “PubChem BioAssay data set” (2004).
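96-well plates; 48 h exposure; 5 concentrations. Endpoints by linear interpolation between flanking doses. Not reached: highest tested concentration assigned. GI50 = concentration required for 50% inhibition of growth.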 Activity calls are given as the source filed them. Cut-off read from the data, not from the text of the source: active = GI50 up to about 1.1 µM and inactive = higher.

Experiments:
Assay in all cases: DTP human tumour cell line panel, 48 h
NCI-H522 = tested on: NCI-H522
HCT-116 = tested on: HCT-116
CCRF-CEM = tested on: CCRF-CEM
UO-31 = tested on: UO-31
A498 = tested on: A498
TK-10 = tested on: TK-10
SNB-19 = tested on: SNB-19
OVCAR-5 = tested on: OVCAR-5
SK-MEL-2 = tested on: SK-MEL-2
HOP-92 = tested on: HOP-92
OVCAR-4 = tested on: OVCAR-4
MCF7 = tested on: MCF7
COLO 205 = tested on: COLO 205
M14 = tested on: M14
U-251 = tested on: U-251
LOX IMVI = tested on: LOX IMVI
NCI/ADR-RES = tested on: NCI/ADR-RES
OVCAR-3 = tested on: OVCAR-3
UACC-62 = tested on: UACC-62

SMILES	GI50 (NCI-H522)	GI50 (HCT-116)	GI50 (CCRF-CEM)	GI50 (UO-31)	GI50 (A498)	GI50 (TK-10)	GI50 (SNB-19)	GI50 (OVCAR-5)	GI50 (SK-MEL-2)	GI50 (HOP-92)	GI50 (OVCAR-4)	GI50 (MCF7)	GI50 (COLO 205)	GI50 (M14)	GI50 (U-251)	GI50 (LOX IMVI)	GI50 (NCI/ADR-RES)	GI50 (OVCAR-3)	GI50 (UACC-62)
COC(=O)[C@@H]1C=CCN1S(=O)(=O)c1ccc(C)cc1	98.4 µM (inactive)	34.2 µM (inactive)	21.8 µM (inactive)	> 100 µM (inactive)	> 100 µM (inactive)	> 100 µM (inactive)	> 100 µM (inactive)	> 100 µM (inactive)	> 100 µM (inactive)	55.5 µM (inactive)	> 100 µM (inactive)	> 100 µM (inactive)	> 100 µM (inactive)	48.1 µM (inactive)	31.1 µM (inactive)	> 100 µM (inactive)	> 100 µM (inactive)	50.8 µM (inactive)	38 µM (inactive)
Nc1nc(N)nc(-c2cnc3ccccc3c2)n1	> 100 µM (inactive)	> 100 µM (inactive)	13.4 µM (inactive)	> 100 µM (inactive)	> 100 µM (inactive)	88.9 µM (inactive)	> 100 µM (inactive)	39.5 µM (inactive)	> 100 µM (inactive)	73.5 µM (inactive)	–	> 100 µM (inactive)	> 100 µM (inactive)	> 100 µM (inactive)	> 100 µM (inactive)	> 100 µM (inactive)	> 100 µM (inactive)	> 100 µM (inactive)	72.1 µM (inactive)
O=C(O)CCSCc1ccc(I)cc1	> 100 µM (inactive)	> 100 µM (inactive)	> 100 µM (inactive)	> 100 µM (inactive)	> 100 µM (inactive)	> 100 µM (inactive)	> 100 µM (inactive)	> 100 µM (inactive)	> 100 µM (inactive)	> 100 µM (inactive)	> 100 µM (inactive)	> 100 µM (inactive)	> 100 µM (inactive)	> 100 µM (inactive)	> 100 µM (inactive)	> 100 µM (inactive)	> 100 µM (inactive)	> 100 µM (inactive)	> 100 µM (inactive)
Fc1cc2nc3n(c2cc1F)C(c1c(F)cccc1F)SC3 (stereo not given)	24.9 µM (inactive)	21.8 µM (inactive)	–	37.8 µM (inactive)	29.8 µM (inactive)	45.4 µM (inactive)	> 100 µM (inactive)	53.3 µM (inactive)	38.2 µM (inactive)	38.8 µM (inactive)	42.1 µM (inactive)	31.4 µM (inactive)	31.3 µM (inactive)	30.5 µM (inactive)	57.3 µM (inactive)	38.8 µM (inactive)	35.4 µM (inactive)	34.4 µM (inactive)	38.8 µM (inactive)
C=C1C(=O)OC2/C=C(\C)CC/C=C(\C)CC(OC(=O)/C(=C/CO)CO)[C@@H]12 (stereo not given in full)	1.75 µM (inactive)	3.27 µM (inactive)	2.09 µM (inactive)	11.6 µM (inactive)	19 µM (inactive)	5.51 µM (inactive)	> 51.4 µM (inactive)	17.3 µM (inactive)	16.9 µM (inactive)	4.93 µM (inactive)	13.1 µM (inactive)	4.46 µM (inactive)	2.2 µM (inactive)	3.9 µM (inactive)	1.4 µM (inactive)	16 µM (inactive)	20 µM (inactive)	5.7 µM (inactive)	17.7 µM (inactive)
C[C@H]1CC[C@@]2(NC1)O[C@H]1C[C@H]3[C@@H]4CC[C@H]5C[C@@H](O)CC[C@]5(C)[C@H]4CC[C@]3(C)[C@H]1[C@@H]2C	59.4 µM (inactive)	54.8 µM (inactive)	> 100 µM (inactive)	> 100 µM (inactive)	77.8 µM (inactive)	> 100 µM (inactive)	> 100 µM (inactive)	> 100 µM (inactive)	> 100 µM (inactive)	52.6 µM (inactive)	35.6 µM (inactive)	> 100 µM (inactive)	> 100 µM (inactive)	> 100 µM (inactive)	–	45.3 µM (inactive)	49.2 µM (inactive)	54.2 µM (inactive)	> 100 µM (inactive)
CCOC(=O)C(Cl)(NC(=O)c1ccc(F)cc1)C(F)(F)F (stereo not given)	> 100 µM (inactive)	> 100 µM (inactive)	> 100 µM (inactive)	> 100 µM (inactive)	> 100 µM (inactive)	> 100 µM (inactive)	> 100 µM (inactive)	> 100 µM (inactive)	> 100 µM (inactive)	> 100 µM (inactive)	> 100 µM (inactive)	> 100 µM (inactive)	> 100 µM (inactive)	> 100 µM (inactive)	> 100 µM (inactive)	> 100 µM (inactive)	> 100 µM (inactive)	> 100 µM (inactive)	–
Oc1cc(-c2ccc3ccccc3c2)nc2ncccc12	4.02 µM (inactive)	–	7.64 µM (inactive)	18.1 µM (inactive)	7.23 µM (inactive)	19.8 µM (inactive)	17.8 µM (inactive)	31.3 µM (inactive)	4.95 µM (inactive)	8.34 µM (inactive)	12.1 µM (inactive)	5.77 µM (inactive)	4.05 µM (inactive)	7.13 µM (inactive)	–	9.93 µM (inactive)	4.4 µM (inactive)	–	5.41 µM (inactive)
O=C(/C=C/c1ccc2c(c1)OCO2)CC(=O)C(=O)c1c[nH]c2ccccc12	68.5 µM (inactive)	31.8 µM (inactive)	26.7 µM (inactive)	24.2 µM (inactive)	65.5 µM (inactive)	38.4 µM (inactive)	46.2 µM (inactive)	77.4 µM (inactive)	> 100 µM (inactive)	81.7 µM (inactive)	–	32.2 µM (inactive)	35.3 µM (inactive)	63.2 µM (inactive)	30.8 µM (inactive)	40.2 µM (inactive)	> 100 µM (inactive)	32 µM (inactive)	44.2 µM (inactive)
CC(=O)Oc1ccc2cc(-c3ccc(OC(C)=O)c(OC(C)=O)c3)c(=O)oc2c1	44.4 µM (inactive)	60.3 µM (inactive)	42.1 µM (inactive)	56 µM (inactive)	34.4 µM (inactive)	26.5 µM (inactive)	> 100 µM (inactive)	> 100 µM (inactive)	> 100 µM (inactive)	43.4 µM (inactive)	27.1 µM (inactive)	> 100 µM (inactive)	> 100 µM (inactive)	74.8 µM (inactive)	67.1 µM (inactive)	> 100 µM (inactive)	40.7 µM (inactive)	18.4 µM (inactive)	–
COC(=O)C(/C(=N/NC(N)=O)C(=O)Nc1ccc(C)cc1)c1nc2ccc([N+](=O)[O-])cc2nc1O (stereo not given)	27.2 µM (inactive)	> 100 µM (inactive)	> 10 µM (inactive)	–	> 100 µM (inactive)	> 100 µM (inactive)	–	> 100 µM (inactive)	> 100 µM (inactive)	> 100 µM (inactive)	50.2 µM (inactive)	> 100 µM (inactive)	–	> 100 µM (inactive)	> 100 µM (inactive)	69.3 µM (inactive)	> 100 µM (inactive)	> 100 µM (inactive)	> 100 µM (inactive)
O=C(NC1(C(=O)O)CCCC1)c1ccccc1	> 100 µM (inactive)	> 100 µM (inactive)	> 100 µM (inactive)	> 100 µM (inactive)	> 100 µM (inactive)	> 100 µM (inactive)	> 100 µM (inactive)	> 100 µM (inactive)	> 100 µM (inactive)	> 100 µM (inactive)	–	> 100 µM (inactive)	> 100 µM (inactive)	> 100 µM (inactive)	> 100 µM (inactive)	> 100 µM (inactive)	> 100 µM (inactive)	> 100 µM (inactive)	> 100 µM (inactive)
NC(Cc1ccc(O)cn1)C(=O)O (stereo not given)	> 100 µM (inactive)	> 100 µM (inactive)	–	> 100 µM (inactive)	> 100 µM (inactive)	> 100 µM (inactive)	> 100 µM (inactive)	> 100 µM (inactive)	–	> 100 µM (inactive)	> 100 µM (inactive)	> 100 µM (inactive)	> 100 µM (inactive)	–	35.2 µM (inactive)	> 100 µM (inactive)	> 100 µM (inactive)	> 100 µM (inactive)	–
NC(=O)CN1C=CCC(C(N)=O)=C1 [CARICOTAMIDE]	> 100 µM (inactive)	> 100 µM (inactive)	> 100 µM (inactive)	> 100 µM (inactive)	> 100 µM (inactive)	–	> 100 µM (inactive)	> 100 µM (inactive)	> 100 µM (inactive)	> 100 µM (inactive)	> 100 µM (inactive)	> 100 µM (inactive)	> 100 µM (inactive)	> 100 µM (inactive)	> 100 µM (inactive)	> 100 µM (inactive)	> 100 µM (inactive)	> 100 µM (inactive)	> 100 µM (inactive)
O=C(/C=C/c1cc(F)ccc1F)OCCc1ccccc1	> 100 µM (inactive)	> 100 µM (inactive)	38.3 µM (inactive)	95.7 µM (inactive)	> 100 µM (inactive)	> 100 µM (inactive)	> 100 µM (inactive)	> 100 µM (inactive)	> 100 µM (inactive)	40.6 µM (inactive)	0.933 µM (active)	42.2 µM (inactive)	> 100 µM (inactive)	> 100 µM (inactive)	33 µM (inactive)	–	> 100 µM (inactive)	–	86.5 µM (inactive)
